Source: patent US20250302904A1, “EXTRACTS IN EUTECTIC SOLVENT OF OLIVE OIL POLYPHENOLS, COMPOSITIONS, USES AND METHODS OF PREPARATION THEREOF” (ACTIVE-ITALIA S.R.L., priority 2022, published 2025)

Key:
[1] = Stability test of oleocanthal and oleacein in NaDES or water, 30 days; type: physicochemical; conditions: after 30 days, 10 mM
Procedure: Oleocanthal and oleacein were dissolved at a final concentration equal to 10 mM in water or in NaDES (Betaine/Propylene glycol, Bet/Prop) and subjected to stability test.

[2] = Additional stability tests of oleocanthal and oleacein in water or formulated product (NaDES), 6 months; type: physicochemical; conditions: for degradation with respect to control at time zero: formulated product (NaDES betaine/propylene glycol 1:3.3); for degradation: in water
Procedure: FIG. 4. Stability over time (6 months) of oleacein and oleocanthal at 25° C. and 40° C. in water and in the formulated product (serum NaDES diluted in almond oil). The values represent standard averages and deviations (N=3). The significance tests were performed with one-way ANOVA (p<=0.05).
Additional stability tests of oleocanthal and oleacein in water or in NaDES (that is in NaDES mixture comprising betaine/propylene glycol 1:3.3) were performed for 6 months, at different temperatures. The results obtained from the stability tests over time (6 months) of oleacein and oleocanthal, at two different temperatures (25° C. and 40° C. (accelerated stability)), in water and in the formulated product, are shown in FIG. 4. […] In particular, in water, after six months at 25° C., there is a degradation of oleacein and oleocanthal by about 70% and l′80%, respectively. At 40° C. the degradation results to be still more evident: about 90% for oleacein and 80% for oleocanthal. On the contrary, in the product formulated according to the present invention (NaDES betaine/propylene glycol 1:3.3), the degradation of the active principles, with respect to control at time zero, results to be modest at 25° C. and by about 50% and 30% for oleacein and oleocanthal respectively at 40° C.

[3] = NaDES betaine/propylene glycol (1:3.3), 25° C.
[4] = NaDES betaine/propylene glycol (1:3.3), 40° C.

% loss ([1]; H2O, 25° C.) [%] | % loss ([1]; H2O, 40° C.) [%] | % loss [1, 3] [%] | % loss [1, 4] [%] | degradation with respect to control at time zero ([2]; six months at 25° C.) | degradation with respect to control at time zero ([2]; six months at 40° C.) | degradation ([2]; after six months at 25° C.) | degradation ([2]; six months at 40° C.) | Structure (SMILES)
8.1 | 38.1 | ~0 | 4.5 | modest | about 50% | about 70% | about 90% | CC=C(C=O)C(CC=O)CC(=O)OCCc1ccc(O)c(O)c1 (stereo in doubt) [Oleacein]
7.5 | 32.6 | ~0 | 1.4 | modest | ~30% | ~80% | ~80% | C/C=C(/C=O)[C@@H](CC=O)CC(=O)OCCc1ccc(O)cc1 [Oleocanthal]
